Measurements taken from PubChem BioAssay AID493130 (Broad Institute, 2011).
Records with an inconclusive call do not appear. Activity calls are given as the source filed them.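 Rule for the calls: active = signal-lowering compounds whose fitted half-maximal concentration is at most ten times their highest tested dose; inconclusive = flat fit between -30 and -70%, or poor fit; inactive = flat within 30%, signal rising, or potency beyond limit.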

Biological target: POS-1 (Caenorhabditis elegans) binding to mex-3 RNA
Assay: inhibitors of POS-1/mex-3 RNA binding, dose response, counter-screen for MEX-5 RNA-binding inhibitor project, biochemical, fluorescence polarization, cherry-picked samples, set 2 (AID 493130);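 note: POS-1 as maltose binding protein fusion made in E. coli with FITC RNA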
Details: POS-1/mex-3 RNA fluorescence polarization, 1 h

SMILES	AC50
Cc1cc[n+](-c2[nH]c(=O)sc2/C=N/NC([S-])=Nc2ccccc2)cc1	2.39 µM
O=[N+]([O-])c1ccccc1NC(=S)N/N=C/c1ccc(O)c(O)c1	5.42 µM
O=C(O[C@@H]1OC2COC(=O)c3cc(O)c(O)c(O)c3-c3c(cc(O)c(O)c3O)C(=O)O[C@@H]([C@H]1O)[C@@H]2O)c1cc(O)c(O)c(O)c1	2.27 µM
NS(=O)(=O)c1ccc(N=Nc2c(=O)[nH]n3c(=O)c4c([nH]c23)CCCC4)cc1	0.251 µM
O=[N+]([O-])c1cc(/C=N\Nc2nccs2)ccc1O	2.55 µM
COCC1CCN(Cc2c(C(=O)N3CCc4ccccc4C3)nc3ccc(Cl)cn23)C1 (stereo not given)	> 10 µM (inactive)
COc1ccc2c(c1)NP(=S)(Oc1ccccc1)N2 (stereo not given)	6.91 µM
Nc1nnc(CC(=O)N/N=C/c2cc([N+](=O)[O-])cc(Br)c2O)s1	6.03 µM
Nc1ccc(N(CCO)CCO)cc1	6.49 µM
CC(=O)Nc1cccc(C2=CC(c3ccco3)n3ncnc3N2)c1 (stereo not given)	5.81 µM

Same assay, conditions: POS-1/mex-3 RNA fluorescence polarization, 1 h; at 10 µM (top of the series)

SMILES	activity change, negative = inhibition
O=C(NNc1ncnc2c1cnn2-c1ccc(F)cc1)c1ccco1	inactive
COC(=O)COc1ccc(C2Nc3c(Cl)ccc(C(=O)O)c3C3C=CCC32)cc1 (stereo not given)	inactive
COc1cccc(NCc2cc(=O)oc3cc(C)c(O)cc23)c1	inactive
Cc1ccc2c(c1)c(C1=NC(=S)NC1=O)c(O)n2C	inactive
Nc1ccc2nc[nH]c2c1	inactive
Cc1ccc([C@@H]2C3COCC=C3C(C#N)=C(N)C2(C#N)C#N)o1 (stereo not given in full)	inactive
CCCOc1ccc(C2=CSC3=NCCN23)cc1[N+](=O)[O-]	inactive
CCOC(=O)C1CCN(c2nc3ccccc3nc2C(C#N)C(=O)OC(C)C)CC1 (stereo not given)	inactive
C=CCn1c(O)c(N=NC(=S)Nc2cccc(C)c2)c2ccccc21	inactive
CCOC(=O)c1cc(-c2ccccc2)sc1NC(=S)Nc1cccc(C)n1	inactive
Nc1c(C(=O)Nc2cccc(Cl)c2Cl)sc2nc(-c3cccnc3)ccc12	inactive
O=C(O)Cn1c(O)c(C2=c3ccccc3=NC2=O)sc1=O	inactive
O=c1cc(-c2ccccc2Cl)oc2c(NS(=O)(=O)c3ccccc3OC(F)(F)F)ccc(O)c12	inactive
COc1ccc(NC(=S)NNC(=O)C(C)n2nc(C)c([N+](=O)[O-])c2C)cc1 (stereo not given)	inactive
Oc1c(C=Nc2ccccc2)sc(=S)n1Cc1ccccc1	inactive
Brc1ccc(-c2cn3nc4c(nc3n2)CCCC4)cc1	inactive
COc1ccc(OC)c(-n2c(-c3cc(-c4ccco4)[nH]n3)n[nH]c2=S)c1	inactive
Cn1cc(CNC(=O)C2c3ccccc3Oc3ccccc32)cn1	inactive
CCN(CC)c1ccc(/C=N/NC(=O)c2cccc(S(=O)(=O)Nc3ccccc3OC)c2)c(O)c1	inactive
CCOC(=O)c1ccc(N=Nc2c(C)c(C#N)c(O)[nH]c2=O)cc1	inactive
CCc1nnc2c(N(C)C)nc3ccccc3n12	inactive
Nc1ccc2nc(CN3CCOCC3)[nH]c2c1	inactive
COc1ccccc1N1C(=O)C2C(C(=O)c3ccccc3)=NN(c3ccccc3OC)C2C1=O (stereo not given)	inactive
CNC(=O)c1cc2ccc(OC)cc2oc1=O	inactive
CCOC(=O)C1=C(C)N=c2s/c(=C\c3cccn3C)c(=O)n2C1c1cccc(OC)c1OC (stereo not given)	inactive

SMILES	activity change, negative = inhibition
O=[N+]([O-])c1cc(S(=O)(=O)c2ccc(O)c([N+](=O)[O-])c2)ccc1O	inactive
CCCNc1nc2ccccc2n2c(C)nnc12	inactive
Cc1cccnc1Nc1nc(-c2ccc(O)cc2O)cs1	inactive
O=c1cc[nH]c2c1ccc1c(=O)cc[nH]c12	inactive
O=C(O)c1cccc(NC2=C(Cl)C(=O)c3ccccc3C2=O)c1	inactive
COc1nc(N/N=C/c2ccc(-c3ccccc3[N+](=O)[O-])o2)nc(N2CCOCC2)n1	inactive
Cc1cc(=O)oc(C)c1C(=O)Nc1c(C)n(C)n(-c2ccccc2)c1=O	inactive
COc1ccccc1N=Nc1c(C)[nH][nH]c1=O	inactive
NC(=O)c1cccc2cc3ccccc3cc12	inactive
Cc1nc2nc(-c3ccc(Cl)cc3)cn2nc1C	inactive
CCC(=O)NCCc1nc2ccccc2n1Cc1ccccc1	inactive
COC(=O)CCC(=O)NC(=S)Nc1sc(C)c(C)c1C(N)=O	inactive
Cc1cc(-c2nnc(SCC(=O)Nc3nccs3)o2)no1	inactive
CCCC(=O)Nc1ccc(NC(=O)c2cccs2)cn1	inactive
O=C1/C(=C\c2ccc(Br)cc2)SC(=S)N1NS(=O)(=O)c1ccccc1	inactive
CCCc1cc(C(=O)Cc2ccc(C(=O)OCC)o2)c(O)cc1O	inactive
CCc1cccc2cc3c(N)c(C(=O)Nc4ccc(S(=O)(=O)N5CCCC5)cc4)sc3nc12	inactive
O=S(=O)(O)c1cc(O)c2c(O)c(N=Nc3cc(Cl)ccc3O)c(S(=O)(=O)O)cc2c1	inactive
CCOC(=O)/C=c1\s/c(=C\c2ccc(-c3ccccc3)cc2)c(=O)n1CC(=O)NCc1ccc2c(c1)OCO2	inactive
CN(C)CC(O)COc1ccc(C(C)(C)c2ccc(OCC(O)CN(C)C)cc2)cc1 (stereo not given)	inactive
Cc1nc2c(N=Nc3ccccc3F)c(N)nn2c(N)c1C#N	inactive
CC1=CC2=NC(=O)/C(=C\c3cn(C)c4ccccc34)C(=N)N2O1	inactive
COC(=O)c1ccc(CC(=O)c2c(C)cc(O)cc2O)o1	inactive
CCN1C(=O)c2cccc3c(NC(=O)C4CCCCC4)ccc1c23	inactive
O=C1C(Cl)=C(NC2CCCCC2)C(=O)N1c1ccc(Cl)cc1	inactive

SMILES	activity change, negative = inhibition
Oc1cccc(/C=N/NC(=S)Nc2cccnc2)c1O	inactive
CC1=NN2C(=N)/C(=C\c3ccc(SCc4ccccc4)o3)C(=O)N=C2S1	inactive
COc1ccc(CN2C(=O)NC(=O)/C(=C\c3ccco3)C2=O)cc1	inactive
S=c1[nH]cnc2sc(Nc3ccccc3)nc12	inactive
COc1cc(/C=N/NC(=O)c2ccc(=O)[nH]n2)ccc1O	inactive
O=C(O)Cc1c[nH]c2cccc(O)c12	inactive
O=c1oc2cc([N+](=O)[O-])ccc2nc1/C=C(\O)c1cccc(Br)c1	inactive
COc1cc2c(cc1N/C=C(\C#N)c1nc(-c3ccc(F)cc3)cs1)oc1ccccc12	inactive
Cc1nnc(-c2cccc(Br)c2)c2cn(-c3cccc(Br)c3)nc12	inactive
Cc1c(Cl)cccc1NC(=O)C(=O)NNS(=O)(=O)c1ccc(F)cc1	inactive
O=C(NN=C1C2CC3CC1CC(Cl)(C3)C2)c1ccccn1	inactive
CCc1nc2ccccc2c(=O)n1/N=C/c1ccc(OC)cc1	inactive
CS(=O)(=O)/C(C#N)=C/c1c(-c2ccccc2)nc2n1CCS2	inactive
COc1ccc(NC(=O)/C=C/c2cccc(C(F)(F)F)c2)cn1	inactive
Cc1ccc(-c2nc(C=Nc3ccccc3)c(O)o2)cc1	inactive
CCOC(=O)C(=NC(C)C)NNc1cc(Cl)ccc1Cl	inactive
NC1=NC(=O)/C(=C\c2ccc(O)c([N+](=O)[O-])c2)S1	inactive
CCCc1nc2ccccc2c(=O)n1/N=C/c1ccc(O)c(O)c1	inactive
CCc1ccc(/C=C2\Oc3cc(OS(C)(=O)=O)ccc3C2=O)cc1	inactive
CC(C)(C)OC(=O)NCCCC1=CC2=CC(=O)C(C)(O)C(=O)C2=CO1 (stereo not given)	inactive
COc1ccc(CC(=O)NNc2ncnc3c2cnn3C)cc1	inactive
O=C(NNC(=O)c1cc(Cl)ccc1[N+](=O)[O-])c1csc(N2CCOCC2)n1	inactive
Oc1ccc(/C=N/Nc2ncnc3nc[nH]c23)cc1	inactive
CCCCN(C(=O)C1=COCCO1)c1c(N)n(Cc2ccccc2)c(=O)[nH]c1=O	inactive
Nc1ccc(Oc2ncccn2)cc1	inactive
